The results in this text go back to US9326666B2, “Multi-channel medical imaging system” (Beth Israel Deaconess Medical Center, priority 2002, dated 2016).

In series [1] the test system is mitochondria and/or endoplasmic reticulum. The series can be described thus: Partitioning of dye into subcellular organelles. Format: cell-based. An excerpt:
(§1) More generally, IR-786 may be used for non-radioactive imaging of areas of ischemia in the living heart, or other visualization of the viability of other tissues.

Series [2] in a line: Imaging of blood flow in the heart of a living laboratory rat after thoracotomy. Format: in vivo.
From the text: as §1

Series [3] is described as follows: In vivo early half-life of dye in blood. The conditions noted are these: small molecule form. An excerpt:
This permits multiple injections during a single procedure.

Series [4] in a line: Solubility of dye in blood. The conditions noted are these: small molecule form.

`CN1C(=CC=C2CCCC(C=CC3=[N+](C)c4ccccc4C3(C)C)=C2Cl)C(C)(C)c2ccccc21.[O-][Cl+3]([O-])([O-])[O-]` [IR-786]: the “partitioning into mitochondria and/or endoplasmic reticulum” value in series [1] is “partitions efficiently into mitochondria and/or endoplasmic reticulum in a concentration-dependent manner”. In series [2], the “imaging of blood flow in the heart” value is recorded as “successfully applied”.
For `CC1(C)C(/C=C/C=C/C=C/C=C2\N(CCCCS(=O)(=O)O)c3ccc4ccccc4c3C2(C)C)=[N+](CCCCS(=O)(=O)[O-])c2ccc3ccccc3c21` [Indocyanine green, indocyanine green], the “in vivo early half-life” value in series [3] is “shorter half-life”. Further, in series [4], the solubility in blood entry is given as “somewhat less soluble in blood”.
